Test results published in ChEMBL document CHEMBL1146664, “Cytochrome P450/NADPH-dependent formation of trans epoxides from trans-arachidonic acids” (Bioorg Med Chem Lett, 2004).

Assay: Level reaching in blood plasma of rat or human was determined
Assay type: ADME, cell-free

CCCCC/C=C/CC1OC1C/C=C\C/C=C\CCCC(=O)O (stereo not given)
Activity: 0.5 µM

CCCCCC(O)C(O)C/C=C\C/C=C\C/C=C\CCCC(=O)O (stereo not given)
Activity: 0.5 µM

CCCCC/C=C/C/C=C\C/C=C\C/C=C\CCCC(=O)O
Activity: 0.5 µM

CCCCCC1OC1C/C=C\C/C=C\C/C=C\CCCC(=O)O (trans isomer)
Activity: 0.5 µM

CCCCC/C=C/CC(O)C(O)C/C=C\C/C=C\CCCC(=O)O (trans isomer)
Activity: 0.5 µM
